{"source": "ChEMBL document CHEMBL5465560", "about": "“Selectivity Literature for EUbOPEN Chemogenomic Library” (2024)", "key": {"[1]": {"target": "Serine/threonine-protein kinase PAK 4 (Homo sapiens, UniProt O96013)", "test": "Selectivity interaction (KinomeScan (DiscoverX)) EUB0001079a PAK4", "conditions": "at 1 µM"}, "[2]": {"test_system": "Epidermal growth factor receptor (Homo sapiens), P00533 [UNDEFINED MUTATION]", "test": "(§1) Selectivity interaction (KinomeScan (DiscoverX)) EUB0000666a EGFR", "conditions": "at 10 µM"}, "[3]": {"test_system": "Epidermal growth factor receptor (Homo sapiens), P00533 [T790M]", "test": "as §1", "conditions": "at 10 µM"}, "[4]": {"test_system": "Epidermal growth factor receptor (Homo sapiens), P00533 [L858R]", "sequence (P00533 whole entry L858R)": "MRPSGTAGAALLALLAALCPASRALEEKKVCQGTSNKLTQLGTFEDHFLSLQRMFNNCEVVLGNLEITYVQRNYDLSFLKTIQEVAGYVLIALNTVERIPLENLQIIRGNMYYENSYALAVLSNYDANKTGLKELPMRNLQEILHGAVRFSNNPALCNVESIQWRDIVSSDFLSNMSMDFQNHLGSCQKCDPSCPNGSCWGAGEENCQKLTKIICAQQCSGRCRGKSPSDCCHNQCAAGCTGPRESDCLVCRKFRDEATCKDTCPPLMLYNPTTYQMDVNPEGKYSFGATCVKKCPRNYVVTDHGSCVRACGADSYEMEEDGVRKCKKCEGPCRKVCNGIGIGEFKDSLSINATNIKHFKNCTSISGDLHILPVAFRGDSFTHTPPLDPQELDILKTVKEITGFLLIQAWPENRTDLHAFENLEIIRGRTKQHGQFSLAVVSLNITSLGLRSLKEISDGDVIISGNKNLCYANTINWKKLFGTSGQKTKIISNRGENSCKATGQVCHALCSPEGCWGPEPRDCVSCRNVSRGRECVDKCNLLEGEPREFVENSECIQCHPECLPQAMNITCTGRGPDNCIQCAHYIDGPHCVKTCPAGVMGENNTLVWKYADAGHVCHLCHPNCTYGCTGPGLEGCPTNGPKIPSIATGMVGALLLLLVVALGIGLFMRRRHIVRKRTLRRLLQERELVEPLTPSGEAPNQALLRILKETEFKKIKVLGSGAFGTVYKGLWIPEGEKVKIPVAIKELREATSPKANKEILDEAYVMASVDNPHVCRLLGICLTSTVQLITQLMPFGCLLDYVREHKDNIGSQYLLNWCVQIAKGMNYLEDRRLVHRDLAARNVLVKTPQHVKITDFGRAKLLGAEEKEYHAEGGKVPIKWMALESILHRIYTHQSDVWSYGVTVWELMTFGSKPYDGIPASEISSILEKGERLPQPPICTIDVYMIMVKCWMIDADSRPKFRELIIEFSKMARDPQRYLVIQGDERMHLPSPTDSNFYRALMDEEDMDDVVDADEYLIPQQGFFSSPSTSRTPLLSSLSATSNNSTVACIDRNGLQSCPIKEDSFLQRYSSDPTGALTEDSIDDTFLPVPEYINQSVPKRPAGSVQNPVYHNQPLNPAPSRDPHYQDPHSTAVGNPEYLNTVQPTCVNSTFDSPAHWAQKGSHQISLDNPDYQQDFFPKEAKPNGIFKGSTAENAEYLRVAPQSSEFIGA", "test": "as §1", "conditions": "at 10 µM"}, "[5]": {"test_system": "Epidermal growth factor receptor (Homo sapiens), P00533 [L858R,T790M]", "test": "as §1", "conditions": "at 10 µM"}, "[6]": {"test_system": "Epidermal growth factor receptor (Homo sapiens), P00533 [G719C]", "test": "as §1", "conditions": "at 10 µM"}, "[7]": {"test_system": "Epidermal growth factor receptor (Homo sapiens), P00533 [G719S]", "test": "as §1", "conditions": "at 10 µM"}, "[8]": {"target": "Sodium-dependent dopamine transporter (Homo sapiens, UniProt Q01959)", "sequence (Q01959 whole entry)": "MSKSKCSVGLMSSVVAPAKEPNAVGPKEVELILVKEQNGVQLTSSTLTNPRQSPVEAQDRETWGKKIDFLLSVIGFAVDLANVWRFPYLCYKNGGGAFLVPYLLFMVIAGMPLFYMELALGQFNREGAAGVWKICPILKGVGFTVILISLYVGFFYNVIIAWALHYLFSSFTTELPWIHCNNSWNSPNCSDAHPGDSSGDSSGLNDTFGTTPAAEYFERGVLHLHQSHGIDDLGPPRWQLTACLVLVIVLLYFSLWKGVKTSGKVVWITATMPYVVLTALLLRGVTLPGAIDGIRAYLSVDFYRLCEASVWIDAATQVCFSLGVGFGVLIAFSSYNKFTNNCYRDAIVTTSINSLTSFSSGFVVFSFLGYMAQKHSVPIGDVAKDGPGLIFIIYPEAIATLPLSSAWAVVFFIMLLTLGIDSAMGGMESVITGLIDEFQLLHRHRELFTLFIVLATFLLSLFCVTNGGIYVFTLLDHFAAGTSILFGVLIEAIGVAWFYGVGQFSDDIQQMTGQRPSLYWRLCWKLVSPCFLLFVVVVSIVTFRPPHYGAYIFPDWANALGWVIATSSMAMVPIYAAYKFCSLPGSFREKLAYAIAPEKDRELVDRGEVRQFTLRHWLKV", "test": "Selectivity interaction (Dopamine Transporter assay, human recombinant ) EUB0000877a SLC6A3"}, "[9]": {"target": "MAP kinase-interacting serine/threonine-protein kinase 2 (Homo sapiens, UniProt Q9HBH9)", "sequence (Q9HBH9 whole entry, looked up)": "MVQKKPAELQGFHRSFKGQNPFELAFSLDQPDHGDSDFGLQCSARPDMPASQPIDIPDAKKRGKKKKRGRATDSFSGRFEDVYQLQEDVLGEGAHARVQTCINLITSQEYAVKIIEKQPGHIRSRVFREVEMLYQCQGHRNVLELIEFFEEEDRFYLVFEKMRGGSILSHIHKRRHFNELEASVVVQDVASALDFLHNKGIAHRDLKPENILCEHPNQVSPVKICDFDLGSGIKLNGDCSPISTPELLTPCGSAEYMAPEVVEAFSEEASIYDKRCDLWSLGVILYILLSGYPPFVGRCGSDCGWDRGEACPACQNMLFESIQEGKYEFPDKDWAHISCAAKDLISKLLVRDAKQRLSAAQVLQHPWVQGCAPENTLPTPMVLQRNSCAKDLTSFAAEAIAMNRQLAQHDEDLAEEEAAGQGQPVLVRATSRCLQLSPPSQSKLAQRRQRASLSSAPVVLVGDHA", "test": "Selectivity interaction (ProQinase) EUB0000171b MKNK2"}, "[10]": {"target": "T1, Protein kinase C zeta type (Homo sapiens) (UniProt Q05513)", "T1 sequence (whole entry)": "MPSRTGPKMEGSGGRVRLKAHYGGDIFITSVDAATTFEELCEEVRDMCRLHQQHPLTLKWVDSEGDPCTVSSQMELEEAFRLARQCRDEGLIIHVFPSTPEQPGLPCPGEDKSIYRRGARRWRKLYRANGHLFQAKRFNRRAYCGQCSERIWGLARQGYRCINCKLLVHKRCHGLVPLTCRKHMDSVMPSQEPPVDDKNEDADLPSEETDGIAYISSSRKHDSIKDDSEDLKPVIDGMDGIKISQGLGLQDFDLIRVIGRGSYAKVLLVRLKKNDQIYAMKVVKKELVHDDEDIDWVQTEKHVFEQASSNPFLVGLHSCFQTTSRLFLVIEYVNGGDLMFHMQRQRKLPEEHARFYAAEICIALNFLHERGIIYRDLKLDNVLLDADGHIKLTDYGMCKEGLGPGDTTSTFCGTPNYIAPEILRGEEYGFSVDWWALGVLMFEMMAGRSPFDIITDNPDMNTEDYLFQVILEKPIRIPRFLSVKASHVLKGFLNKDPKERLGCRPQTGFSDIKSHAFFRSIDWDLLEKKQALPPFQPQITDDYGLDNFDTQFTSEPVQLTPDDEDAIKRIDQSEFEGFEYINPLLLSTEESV", "test": "Selectivity interaction (ProQinase) EUB0000171b PRKCZ", "conditions": "at 1 µM"}, "KCNQ1": {"target": "KCNQ1 (Homo sapiens, UniProt P51787)", "test": "Selectivity interaction (Panel of kinases, GPCRs, ion channels and transporters (enzymatic assay)) EUB0000223bCl KCNQ1"}, "[11]": {"target": "Ribosomal protein S6 kinase alpha-2 (Homo sapiens) (UniProt Q15349)", "test": "Selectivity interaction (SelectScreen profiling (Invitrogen)) EUB0000607a RPS6KA2", "conditions": "at 2 µM"}, "[12]": {"target": "5'-AMP-activated protein kinase catalytic subunit alpha-1 (Homo sapiens, UniProt Q13131)", "sequence (Q13131 whole entry, looked up)": "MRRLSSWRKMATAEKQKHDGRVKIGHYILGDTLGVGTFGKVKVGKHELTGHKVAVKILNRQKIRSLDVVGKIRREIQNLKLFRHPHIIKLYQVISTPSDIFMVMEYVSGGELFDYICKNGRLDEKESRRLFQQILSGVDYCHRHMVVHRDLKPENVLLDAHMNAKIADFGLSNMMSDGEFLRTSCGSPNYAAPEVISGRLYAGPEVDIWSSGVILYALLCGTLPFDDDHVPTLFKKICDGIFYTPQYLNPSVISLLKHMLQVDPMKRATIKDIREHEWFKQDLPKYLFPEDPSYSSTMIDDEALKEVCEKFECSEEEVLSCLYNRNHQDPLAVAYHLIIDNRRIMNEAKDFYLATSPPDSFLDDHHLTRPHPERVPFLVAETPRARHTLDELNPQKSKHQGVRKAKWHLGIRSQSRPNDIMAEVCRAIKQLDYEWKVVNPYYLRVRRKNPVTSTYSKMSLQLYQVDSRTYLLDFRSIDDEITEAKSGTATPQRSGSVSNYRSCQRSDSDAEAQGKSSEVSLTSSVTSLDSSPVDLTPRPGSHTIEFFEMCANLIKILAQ", "test": "Selectivity interaction (ActivX KiNativ screen (kinase selectivity in THP-1 cell lysates)) EUB0000639a PRKAA1", "assay_type": "subcellular", "conditions": "lysate"}, "[13]": {"target": "T2, Calcium/calmodulin-dependent protein kinase type IV (Homo sapiens) (UniProt Q16566)", "T2 sequence (whole entry)": "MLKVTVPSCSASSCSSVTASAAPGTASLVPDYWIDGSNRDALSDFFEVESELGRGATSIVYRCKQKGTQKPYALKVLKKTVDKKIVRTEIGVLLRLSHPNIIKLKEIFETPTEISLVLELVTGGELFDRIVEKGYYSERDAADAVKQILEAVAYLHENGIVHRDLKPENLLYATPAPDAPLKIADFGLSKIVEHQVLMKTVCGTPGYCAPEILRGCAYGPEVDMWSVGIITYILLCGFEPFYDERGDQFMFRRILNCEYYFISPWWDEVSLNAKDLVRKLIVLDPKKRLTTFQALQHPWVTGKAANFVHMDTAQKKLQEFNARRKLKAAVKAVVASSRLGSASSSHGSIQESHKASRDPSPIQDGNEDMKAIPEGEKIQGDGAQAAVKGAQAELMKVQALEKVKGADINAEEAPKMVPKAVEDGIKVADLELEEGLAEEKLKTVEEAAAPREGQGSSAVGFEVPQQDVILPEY", "test": "Selectivity interaction (ActivX KiNativ screen (kinase selectivity in THP-1 cell lysates)) EUB0000639a CAMK4", "assay_type": "subcellular", "conditions": "lysate"}, "[14]": {"target": "Rho-associated protein kinase 1 (Homo sapiens) (UniProt Q13464)", "sequence (Q13464 2-1354 limits assumed)": "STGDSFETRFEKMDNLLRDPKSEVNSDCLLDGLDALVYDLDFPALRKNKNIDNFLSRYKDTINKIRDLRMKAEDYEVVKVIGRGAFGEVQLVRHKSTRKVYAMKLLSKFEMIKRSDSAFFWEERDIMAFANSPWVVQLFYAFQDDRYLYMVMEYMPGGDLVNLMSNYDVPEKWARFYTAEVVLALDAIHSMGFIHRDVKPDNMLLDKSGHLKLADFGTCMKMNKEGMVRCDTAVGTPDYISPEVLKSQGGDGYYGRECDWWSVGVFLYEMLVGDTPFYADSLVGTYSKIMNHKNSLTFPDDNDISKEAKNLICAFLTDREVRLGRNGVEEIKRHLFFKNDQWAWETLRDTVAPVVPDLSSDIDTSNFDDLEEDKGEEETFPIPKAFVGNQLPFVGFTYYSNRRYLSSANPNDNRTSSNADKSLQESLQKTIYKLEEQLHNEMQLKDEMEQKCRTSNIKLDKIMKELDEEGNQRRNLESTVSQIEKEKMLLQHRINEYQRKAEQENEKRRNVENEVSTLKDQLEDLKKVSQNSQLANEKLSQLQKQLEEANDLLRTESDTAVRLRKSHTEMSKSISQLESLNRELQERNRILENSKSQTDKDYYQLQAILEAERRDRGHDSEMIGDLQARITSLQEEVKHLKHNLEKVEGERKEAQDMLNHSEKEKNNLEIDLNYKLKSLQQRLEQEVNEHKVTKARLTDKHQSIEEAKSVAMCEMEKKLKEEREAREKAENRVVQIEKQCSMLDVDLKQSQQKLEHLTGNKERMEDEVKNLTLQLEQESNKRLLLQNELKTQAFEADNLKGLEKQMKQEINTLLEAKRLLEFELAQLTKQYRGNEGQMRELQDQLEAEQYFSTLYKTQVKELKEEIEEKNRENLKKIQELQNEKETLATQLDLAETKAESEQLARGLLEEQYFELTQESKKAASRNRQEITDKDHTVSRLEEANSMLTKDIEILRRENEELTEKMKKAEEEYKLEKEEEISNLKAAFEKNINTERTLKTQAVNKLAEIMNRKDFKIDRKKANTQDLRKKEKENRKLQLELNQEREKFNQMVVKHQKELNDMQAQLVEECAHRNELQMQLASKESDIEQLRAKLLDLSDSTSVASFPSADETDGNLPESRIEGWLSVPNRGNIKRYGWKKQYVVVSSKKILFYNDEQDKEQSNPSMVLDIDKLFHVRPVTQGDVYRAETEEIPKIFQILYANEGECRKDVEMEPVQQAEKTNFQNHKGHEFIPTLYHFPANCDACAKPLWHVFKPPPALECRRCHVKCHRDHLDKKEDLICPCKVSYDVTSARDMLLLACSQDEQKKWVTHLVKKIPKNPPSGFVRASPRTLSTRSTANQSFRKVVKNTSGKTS", "test": "Selectivity interaction (ActivX KiNativ screen (kinase selectivity in THP-1 cell lysates)) EUB0000639a ROCK1", "assay_type": "subcellular", "conditions": "lysate"}, "[15]": {"target": "Dual specificity protein kinase CLK2 (Homo sapiens, UniProt P49760)", "sequence (P49760 whole entry, looked up)": "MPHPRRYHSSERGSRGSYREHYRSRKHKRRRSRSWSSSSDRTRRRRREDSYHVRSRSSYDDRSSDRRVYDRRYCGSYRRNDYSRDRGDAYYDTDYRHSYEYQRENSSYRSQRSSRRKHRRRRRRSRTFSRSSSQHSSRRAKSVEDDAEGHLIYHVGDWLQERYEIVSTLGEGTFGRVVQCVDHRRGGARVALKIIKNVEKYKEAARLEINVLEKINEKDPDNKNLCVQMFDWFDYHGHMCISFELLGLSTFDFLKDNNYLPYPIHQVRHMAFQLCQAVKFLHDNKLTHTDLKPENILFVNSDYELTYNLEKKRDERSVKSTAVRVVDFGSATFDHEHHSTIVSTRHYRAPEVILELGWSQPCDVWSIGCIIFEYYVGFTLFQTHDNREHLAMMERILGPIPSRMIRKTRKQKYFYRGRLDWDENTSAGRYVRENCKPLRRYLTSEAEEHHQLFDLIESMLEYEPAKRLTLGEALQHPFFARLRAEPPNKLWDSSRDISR", "conditions": "at 10 µM"}, "[16]": {"target": "Myosin light chain kinase, smooth muscle (Homo sapiens, UniProt Q15746)", "test": "Selectivity interaction (KinomeScan (DiscoverX)) EUB0000092b MYLK", "conditions": "at 10 µM"}}}
{"smiles": "Nc1cnc(N2CCc3cc(S(=O)(=O)Nc4c(F)cc(Cl)cc4F)cc(N4CCCC4=O)c32)nc1", "note": "[TP-020n]", "values": [{"measurement": "% of control", "setting": "[1]", "value": 89, "unit": "%"}]}
{"smiles": "O=C(NOC[C@H](O)CO)c1ccc(F)c(F)c1Nc1ccc(I)cc1F", "values": [{"measurement": "% of control", "setting": "[2]", "value": 84, "unit": "%"}, {"measurement": "% of control", "setting": "[3]", "value": 77, "unit": "%"}, {"measurement": "% of control", "setting": "[4]", "value": 79, "unit": "%"}, {"measurement": "% of control", "setting": "[5]", "value": 100, "unit": "%"}, {"measurement": "% of control", "setting": "[6]", "value": 86, "unit": "%"}, {"measurement": "% of control", "setting": "[7]", "value": 66, "unit": "%"}]}
{"smiles": "CCC(=O)N1CC[C@H](Nc2ncnc3c2CN(c2cnc(OC)c(C(F)(F)F)c2)CC3)C1", "note": "[LENIOLISIB]", "values": [{"measurement": "IC50", "setting": "[8]", "value": "> 30", "unit": "µM"}]}
{"smiles": "C=CC(=O)Nc1cccc(C(=O)Nc2ccc(Nc3cc(-c4[nH]c(SC)nc4C)ccn3)cc2)c1", "values": [{"measurement": "% of control", "setting": "[9]; at 1 µM", "value": 80, "unit": "%"}, {"measurement": "% of control", "setting": "[9]; at 5 µM", "value": 31, "unit": "%"}, {"measurement": "% of control", "setting": "[10]", "value": 90, "unit": "%"}]}
{"smiles": "COc1cc(C(=O)N2CC[C@@H](O)[C@@H](N)C2)cc2nc(-c3cc4ccccc4n3CC3CC3)n(C)c12", "values": [{"measurement": "XC50", "setting": "KCNQ1", "value": "> 25.1", "unit": "µM"}]}
{"smiles": "CNC(=O)Nc1ccc(-c2nc(N3CC4CCC(C3)O4)c3cnn(C4CCC5(CC4)OCCO5)c3n2)cc1", "values": [{"measurement": "% of inhibition", "setting": "[11]", "value": -1, "unit": "%"}]}
{"smiles": "CC[C@@H]1[C@H](F)C(=O)N[C@@H]1COc1nccc2cc(C(N)=O)c(OC)cc12", "note": "[ZIMLOVISERTIB]", "values": [{"measurement": "% of inhibition", "setting": "[12]; at 0.01 µM", "value": 16, "unit": "%"}, {"measurement": "% of inhibition", "setting": "[12]; at 0.04 µM", "value": 21.7, "unit": "%"}, {"measurement": "% of inhibition", "setting": "[12]; at 0.2 µM", "value": 11.2, "unit": "%"}, {"measurement": "% of inhibition", "setting": "[12]; at 1 µM", "value": 11.8, "unit": "%"}, {"measurement": "% of inhibition", "setting": "[12]; at 5 µM", "value": 28.8, "unit": "%"}, {"measurement": "% of inhibition", "setting": "[13]; at 0.01 µM", "value": 25.8, "unit": "%"}, {"measurement": "% of inhibition", "setting": "[13]; at 0.04 µM", "value": 19.1, "unit": "%"}, {"measurement": "% of inhibition", "setting": "[13]; at 0.2 µM", "value": -4.7, "unit": "%"}, {"measurement": "% of inhibition", "setting": "[13]; at 1 µM", "value": 11.2, "unit": "%"}, {"measurement": "% of inhibition", "setting": "[13]; at 5 µM", "value": 18.6, "unit": "%"}, {"measurement": "% of inhibition", "setting": "[14]; at 0.01 µM", "value": 12.6, "unit": "%"}, {"measurement": "% of inhibition", "setting": "[14]; at 0.04 µM", "value": -4.3, "unit": "%"}, {"measurement": "% of inhibition", "setting": "[14]; at 0.2 µM", "value": -10.6, "unit": "%"}, {"measurement": "% of inhibition", "setting": "[14]; at 1 µM", "value": 18.3, "unit": "%"}, {"measurement": "% of inhibition", "setting": "[14]; at 5 µM", "value": 53.9, "unit": "%"}]}
{"smiles": "CCN(CC)CCCCNc1ncc2cc(-c3cc(OC)cc(OC)c3)c(NC(=O)NC(C)(C)C)nc2n1", "values": [{"measurement": "% of control", "setting": "[15]", "value": 100, "unit": "%"}]}
{"smiles": "CCC(=O)N1CCN(c2ccc(-n3c(=O)ccc4cnc5ccc(-c6cnc7ccccc7c6)cc5c43)cc2C(F)(F)F)CC1", "values": [{"measurement": "% of control", "setting": "[16]", "value": 87, "unit": "%"}]}
